Test results: US7691869B2, “Pyrrolotriazolopyrimidine derivatives, pharmaceutical compositions containing them and methods of treating conditions and diseases mediated by the adenosine A2A receptor activity” (King Pharmaceuticals Research and Development, Inc., priority 2008, dated 2010)

How the values were obtained:
[1] = target: T1, human adenosine A2A receptor (Homo sapiens, UniProt P29274); test: Human cloned A2A adenosine receptor binding assay ([3H]ZM241385 displacement, CHO membranes); conditions: [3H]ZM241385, CHO cells transfected with human recombinant A2A receptors
T1 construct: expressed in transfected cells; host or cells: CHO cells (membrane preparation)
T1 sequence (P29274 whole entry): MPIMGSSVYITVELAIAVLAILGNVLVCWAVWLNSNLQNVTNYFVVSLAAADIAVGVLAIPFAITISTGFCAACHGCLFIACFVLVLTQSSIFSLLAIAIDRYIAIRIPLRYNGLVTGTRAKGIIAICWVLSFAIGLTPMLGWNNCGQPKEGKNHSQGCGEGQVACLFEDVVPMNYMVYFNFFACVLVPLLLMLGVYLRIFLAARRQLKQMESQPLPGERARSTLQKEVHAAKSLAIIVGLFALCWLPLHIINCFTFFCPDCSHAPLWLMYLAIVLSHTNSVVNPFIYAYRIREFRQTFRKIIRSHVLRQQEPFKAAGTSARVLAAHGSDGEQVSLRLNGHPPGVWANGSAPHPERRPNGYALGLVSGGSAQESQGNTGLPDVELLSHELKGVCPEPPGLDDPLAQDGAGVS
Experimental: CHO Membranes Preparation
The human adenosine receptors have been transfected in CHO cells according with the method previously described by Klotz et al. (Naunyn-Schmied. Arch Pharm. 1998, 357: 1-9). Briefly, the cells are grown adherently and maintained in Dulbecco's Modified Eagles Medium with nutrient mixture F12 (DMEM/F12) without nucleosides, containing 10% fetal calf serum, penicillin (100 U/mL), streptomycin (100 μg/mL), L-glutamine (2 mM) and Geneticin (G418, 0.2 mg/ml) at 37° C. in 5% CO2/95% air. For membrane preparation the culture medium is removed and the cells are ished with phosphate-buffered saline and scraped off T75 flasks in ice-cold hypo tonic buffer (5 mM Tris HCl, 1 mM EDTA, pH 7.4). The cell suspension is homogenized with Polytron, the homogenate is spun for 10 min at 1000×g and the supernatant is then centrifuged for 30 min at 100,000×g. […]
All new synthesized compounds have been tested to evaluate their affinity to human A1, A2A, A2B and A3 adenosine receptors. […] Non-specific binding is determined in the presence of 10 μM of CHA and this is always ≦10% of the total binding. […] Non-specific binding is determined in the presence of 1 μM ZM 241385 and is about 20% of total binding. […] Bound and free radioactivity are separated by filtering the assay mixture through Whatman GF/B glass fiber filters using a Micro-Mate 196 cell harvester (Packard Instrument Co.). The filter bound radioactivity is counted on a Top Count (efficiency 57%) with Micro-Scint 20.
The protein concentration is determined according to a Bio-Rad method (Bradford, Anal Biochem. 1976, 72: 248-254) with bovine albumin as a standard reference. Inhibitory binding constant, Ki, values are calculated from those of IC50 according to Cheng & Prusoff equation (Biochem. Pharmacol. 1973, 22: 3099-3108): Ki=IC50/(1+[C*]/KD*) where [C*] is the concentration of the radioligand and KD* its dissociation constant. […] Data are expressed as geometric mean with 95% confidence limits in parentheses.

[2] = system: 6-OHDA lesion rats; test: 6-OHDA lesion of the middle forebrain bundle in rats, Protocol B (apomorphine-induced rotation); assay type: in vivo, rat; conditions: 30 mg/kg single i.p. dose; threshold dose of apomorphine 0.02 mg/kg i.p.; significant increase, p≦0.05; FIG. 1
Experimental: Adult male Sprague-Dowley rats (Harlan UK ltd., Bicester, Oxon, UK), weighing 255±15 g, are used in all experiments. The rats are housed in groups of up to 5 per cage, and the animals are fed an expanded rodent diet of RM1(E) SQC (Special Diets Services, Witham, UK) ab libitum, and allowed free access to water, under controlled temperature and 12 hour light-dark cycle.
The test compounds are formulated for dosing by initially wet grinding a known amount in approximately 10% of the final volume of vehicle, i.e., propylene glycol/polyethylene glycol (PEG400)/glucose (D5W)-15/15/70 v %, in a mortal and pestle. Once suitably wetted, approximately 30% of the remaining vehicle is added, stirred for up to 10 min, and then sonicated for approximately 5 min. This step is repeated twice, using remaining vehicle to provide even suspensions of 0.6, 2 and 6 mg/mL. No correction factor is applied. All test substance formulations are clear to light tan colored suspensions, stored at RT and protected from light until dosing. The dose volume for the test compounds is 5 mL/kg to provide dosages of 3, 10 and 30 mg/kg, respectively.
Apomorphine hydrochloride (HCl) hemihydrate (Sigma, UK) is formulated for dosing by dissolving a known amount in 0.9% w/v sodium chloride (Baxter Healthcare Ltd., UK) to produce a clear, colorless solution of 0.02 mg/mL. […]

Structure (SMILES)	Ki [1]	number of contralateral rotations [2]
Nc1nc2c(ccn2CCN2CCN(c3ccc(F)cc3F)CC2)c2nc(-c3ccco3)nn12 [Example 30, 7-(2-(4-(2,4-Difluorophenyl)piperazin-1-yl)ethyl)-2-(furan-2-yl)-7H-pyrrolo[3,2-e][1,2,4]triazolo[1,5-c]pyrimidin-5-amine]	~5 nM	228±38
Nc1nc2c(ccn2CCN2CCN(C(=O)c3ccc(F)cc3F)CC2)c2nc(-c3ccco3)nn12 [Example 4, (4-(2-(5-Amino-2-(furan-2-yl)-7H-pyrrolo[3,2-e][1,2,4]triazolo[1,5-c]pyrimidin-7-yl)ethyl)piperazin-1-yl)(2,4-difluorophenyl)methanone]	~1 nM	
CN(CCN(C)c1ccc(F)cc1F)CCn1ccc2c1nc(N)n1nc(-c3ccco3)nc21 [Example 29, N^1-(2-(5-Amino-2-(furan-2-yl)-7H-pyrrolo[3,2-e][1,2,4]triazolo[1,5-c]pyrimidin-7-yl)ethyl)-N^2-(2,4-difluorophenyl)-N^1,N^2-dimethylethane-1,2-diamine]	~28 nM	
